From ChEMBL document CHEMBL3784945, “Isoindolinone compounds active as Kv1.5 blockers identified using a multicomponent reaction approach” (Bioorg Med Chem Lett, 2016)
pIC50: −log10 of the molar value. ≈ marks a conversion by molar mass, not a printed value.

How the values were obtained:
[1] = Lipophilicity, log D of the compound by HPLC analysis; format: physicochemical
[2] = (§1) Intrinsic clearance in human liver microsomes; format: ADME; details: liver microsomes, read-out: CLH
[3] = molecular target: T1, Potassium voltage-gated channel subfamily A member 5 (Homo sapiens, UniProt P22460); assay: Inhibition of human Kv1.5 channel by QPatch-clamp method
[4] = system: Mus musculus; assay: In vivo inhibition of Kv1.5 channel in BaLBc mouse assessed as unbound steady-state plasma concentration required to increase QT-interval by 30% at 20 umol/kg,iv for 15 mins; format: functional
[5] = molecular target: Voltage-gated inwardly rectifying potassium channel KCNH2 (Homo sapiens, UniProt Q12809); assay: Inhibition of human ERG
[6] = molecular target: T1, Potassium voltage-gated channel subfamily A member 5; assay: Inhibition of human Kv1.5 channel by Rb-flux assay
[7] = system: Liver microsome; assay: as §1; format: ADME; details: microsomes
[8] = Clearance in iv dosed dog; format: ADME, organism-based, Canis lupus familiaris; details: in vivo
[9] = Absolute bioavailability in dog; format: ADME, organism-based, Canis lupus familiaris; details: in vivo
[10] = molecular target: Cytochrome P450 3A4 (Homo sapiens, UniProt P08684); assay: Inhibition of CYP3A4 (unknown origin); format: ADME
[11] = Solubility of the compound; format: physicochemical
[12] = Clearance in iv dosed rat; format: ADME, organism-based; details: in vivo
[13] = Absolute bioavailability in rat; format: ADME, organism-based; details: in vivo
[14] = Solubility of crystalline form of compound; format: physicochemical

Chain of Voltage-gated inwardly rectifying potassium channel KCNH2 (Q12809 whole entry): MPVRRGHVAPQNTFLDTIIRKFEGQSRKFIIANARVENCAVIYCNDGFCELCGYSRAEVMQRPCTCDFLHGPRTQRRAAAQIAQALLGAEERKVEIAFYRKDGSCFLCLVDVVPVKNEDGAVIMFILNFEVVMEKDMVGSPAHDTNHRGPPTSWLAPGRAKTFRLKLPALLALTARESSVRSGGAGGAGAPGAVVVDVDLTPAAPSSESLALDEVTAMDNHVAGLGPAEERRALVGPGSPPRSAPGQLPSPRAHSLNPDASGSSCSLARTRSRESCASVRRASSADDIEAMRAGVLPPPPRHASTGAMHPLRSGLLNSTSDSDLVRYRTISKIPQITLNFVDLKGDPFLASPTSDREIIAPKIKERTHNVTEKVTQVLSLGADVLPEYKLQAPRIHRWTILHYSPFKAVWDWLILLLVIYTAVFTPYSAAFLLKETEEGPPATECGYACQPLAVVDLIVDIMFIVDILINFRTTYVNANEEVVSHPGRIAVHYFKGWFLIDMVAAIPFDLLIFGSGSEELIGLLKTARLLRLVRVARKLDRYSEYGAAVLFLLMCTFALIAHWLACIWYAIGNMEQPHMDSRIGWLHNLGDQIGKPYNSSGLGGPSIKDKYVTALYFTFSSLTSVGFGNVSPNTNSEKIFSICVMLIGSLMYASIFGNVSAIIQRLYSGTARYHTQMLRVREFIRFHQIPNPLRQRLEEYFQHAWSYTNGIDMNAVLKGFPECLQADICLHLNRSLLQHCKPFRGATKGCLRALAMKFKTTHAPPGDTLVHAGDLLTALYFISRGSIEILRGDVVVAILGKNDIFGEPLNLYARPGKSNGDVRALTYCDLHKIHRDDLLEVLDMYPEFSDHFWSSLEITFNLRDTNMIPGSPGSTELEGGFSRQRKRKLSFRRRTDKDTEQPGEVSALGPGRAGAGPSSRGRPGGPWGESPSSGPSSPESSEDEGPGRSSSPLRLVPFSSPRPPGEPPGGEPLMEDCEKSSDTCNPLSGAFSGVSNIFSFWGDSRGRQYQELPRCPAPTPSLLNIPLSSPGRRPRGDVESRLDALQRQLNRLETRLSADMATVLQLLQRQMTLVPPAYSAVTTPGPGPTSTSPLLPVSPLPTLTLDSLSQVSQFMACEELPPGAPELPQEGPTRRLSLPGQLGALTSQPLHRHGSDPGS
T1 sequence (P22460 whole entry): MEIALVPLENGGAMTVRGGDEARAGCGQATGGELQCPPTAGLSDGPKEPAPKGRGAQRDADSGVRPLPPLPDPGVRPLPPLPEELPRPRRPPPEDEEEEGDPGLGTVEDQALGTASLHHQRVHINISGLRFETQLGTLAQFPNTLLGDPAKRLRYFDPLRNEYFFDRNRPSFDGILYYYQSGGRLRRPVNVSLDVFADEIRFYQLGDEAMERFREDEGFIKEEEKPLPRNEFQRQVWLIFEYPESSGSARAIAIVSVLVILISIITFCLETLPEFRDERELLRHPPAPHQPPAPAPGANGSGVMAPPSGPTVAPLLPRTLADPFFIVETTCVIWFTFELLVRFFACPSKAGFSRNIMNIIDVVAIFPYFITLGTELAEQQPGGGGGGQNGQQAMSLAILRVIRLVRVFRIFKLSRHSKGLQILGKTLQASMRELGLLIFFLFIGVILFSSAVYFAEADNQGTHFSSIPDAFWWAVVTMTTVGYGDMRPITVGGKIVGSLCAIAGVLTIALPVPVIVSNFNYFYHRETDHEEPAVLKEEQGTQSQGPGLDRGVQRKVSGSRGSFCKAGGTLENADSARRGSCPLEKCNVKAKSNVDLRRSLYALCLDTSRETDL
Chain of Cytochrome P450 3A4 (P08684 whole entry): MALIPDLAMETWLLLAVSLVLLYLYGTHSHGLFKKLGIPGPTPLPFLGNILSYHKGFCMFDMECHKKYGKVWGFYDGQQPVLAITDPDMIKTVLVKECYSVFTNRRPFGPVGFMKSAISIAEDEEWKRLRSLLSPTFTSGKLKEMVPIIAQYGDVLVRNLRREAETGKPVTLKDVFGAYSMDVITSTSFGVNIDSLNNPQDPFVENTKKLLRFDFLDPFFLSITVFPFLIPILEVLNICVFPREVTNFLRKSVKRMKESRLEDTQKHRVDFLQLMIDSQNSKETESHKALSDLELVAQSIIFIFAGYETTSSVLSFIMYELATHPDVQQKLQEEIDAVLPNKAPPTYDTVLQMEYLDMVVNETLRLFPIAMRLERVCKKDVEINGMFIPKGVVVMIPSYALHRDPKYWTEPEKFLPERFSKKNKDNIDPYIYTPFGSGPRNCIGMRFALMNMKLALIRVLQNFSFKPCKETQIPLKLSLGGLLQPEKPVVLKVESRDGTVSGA

| logD ([1]; read-out: logD) | microsomal CLint [2] [µL/min/mg] | pIC50 [3] | pIC50 [6] | SMILES | pIC50 [5] | further results |
| --- | --- | --- | --- | --- | --- | --- |
| 4.1 | 23 | 6.22 | – | CC(C)(CN1C(=O)c2ccccc2C1C(=O)NCCCC(F)F)c1ccc(F)cc1 (centres undefined) | – | – |
| 4.6 | < 12 | 5.46 | – | Cc1c(O)ccc2c1C(=O)N(Cc1ccccc1-c1ccc(F)c(F)c1)C2C(=O)NC(C)(C)C (centres undefined) | – | – |
| 3.7 | < 12 | 5.92 | – | CC(C)(CN1C(=O)c2ccccc2C1C(=O)NCC(F)F)c1ccc(F)cc1 (centres undefined) | – | Activity [4]: 1.6 µM |
| 3.5 | 64 | 5.92 | – | CCCCNC(=O)C1c2ccccc2C(=O)N1CC(C)(O)c1ccc(Cl)cc1 (centres undefined) | – | – |
| 4.8 | 53 | 5.22 | – | CC(C)(C)NC(=O)C1c2ccccc2C(=O)N1Cc1ccccc1-c1ccc(F)cc1 (centres undefined) | 4.25 | – |
| 5 | 34 | 5.85 | – | CC(C)(C)NC(=O)C1c2ccccc2C(=O)N1Cc1ccc(F)cc1-c1ccc(F)cc1 (centres undefined) | < 4.48 | Activity [4]: 0.9 µM |
| 4.5 | < 12 | 5.57 | – | Cc1c(O)ccc2c1C(=O)N(Cc1ccccc1-c1ccc(F)cc1)C2C(=O)NC(C)(C)C (centres undefined) | < 4.49 | – |
| 4.5 | > 100 | 5.96 | 6.15 | CCCCNC(=O)C1c2ccccc2C(=O)N1CC(C)c1ccc(Cl)cc1 (racemic) | 4.49 | – |
| 4.9 | > 100 | – | 4.95 | COc1ccc2c(c1)C(=O)N(Cc1ccccc1-c1ccccc1)C2C(=O)NC(C)(C)C (racemic) | 4.52 | – |
| 5.6 | > 100 | 6.10 | – | COc1ccc2c(c1C)C(=O)N(Cc1ccccc1-c1ccccc1)C2C(=O)NC(C)(C)C (racemic) | – | – |
| 5.9 | > 100 | – | 5.92 | Cc1c(OC(F)F)ccc2c1C(=O)N(Cc1ccccc1-c1ccccc1)C2C(=O)NC(C)(C)C (racemic) | 4.66 | – |
| 4.4 | < 12 | 5.70 | 5.49 | Cc1c(O)ccc2c1C(=O)N(Cc1ccccc1-c1ccccc1)C2C(=O)NC(C)(C)C (racemic) | 4.34 | – |
| 4.1 | 180 | 6.05 | – | CCCCNC(=O)C1c2ccccc2C(=O)N1CC(C)c1ccc(F)cc1 (racemic) | – | – |
| – | > 100 | – | 4.89 | O=C(NCc1ccncc1)C1c2ccccc2C(=O)N1Cc1ccccc1-c1ccccc1 (racemic) | < 4.48 | – |
| – | 62 | – | < 4.49 | CC(C)(C)NC(=O)C1c2cc(Cl)ccc2C(=O)N1C(c1cccnc1)c1cccnc1 (racemic) | – | – |
| 3.5 | > 100 | – | – | CC(c1ccccc1)N1C(=O)c2ccccc2C1C(=O)NCc1ccccc1 (racemic) | < 4.48 | – |
| 5.1 | > 100 | – | 4.98 | Cc1c(OS(C)(=O)=O)ccc2c1C(=O)N(Cc1ccccc1-c1ccccc1)C2C(=O)NC(C)(C)C (racemic) | < 4.49 | – |
| 3.6 | > 100 | – | < 4.49 | COCCOCCNC(=O)C1c2cc(F)ccc2C(=O)N1CC(C)c1ccc(Cl)cc1 (racemic) | < 4.48 | – |
| – | 34 | < 5.00 | < 4.49 | CC(c1ccccc1)N1C(=O)c2ccccc2C1C(=O)NC(C)(C)CO (racemic) | < 4.48 | – |
| 4.7 | > 100 | – | – | CC(C)(C)NC(=O)C1c2ccccc2C(=O)N1Cc1ccccc1-c1ccccc1 (racemic) | 4.21 | – |
| 4.7 | > 100 | – | 4.43 | CC(C)(C)NC(=O)C1c2ccc(C#N)cc2C(=O)N1Cc1ccccc1-c1ccccc1 (racemic) | – | – |
| 5.6 | > 100 | 5.89 | – | Cc1c(OCF)ccc2c1C(=O)N(Cc1ccccc1-c1ccccc1)C2C(=O)NC(C)(C)C (racemic) | – | – |
| 4.7 | > 100 | 5.48 | – | CC(C)(C)NC(=O)C1c2cc(C#N)ccc2C(=O)N1Cc1ccccc1-c1ccccc1 (racemic) | < 4.48 | – |

| logD ([1]; read-out: logD) | microsomal CLint [2] [µL/min/mg] | pIC50 [3] | pIC50 [6] | SMILES | pIC50 [5] | further results |
| --- | --- | --- | --- | --- | --- | --- |
| 4 | 59 | 5.12 | 4.77 | CC(C)(C)NC(=O)C1c2ccc(NS(C)(=O)=O)cc2C(=O)N1Cc1ccccc1-c1ccccc1 (racemic) | 4.82 | – |
| 4 | > 100 | 5.16 | 5.08 | CC(C)(C)NC(=O)C1c2ccc(O)cc2C(=O)N1Cc1ccccc1-c1ccccc1 (racemic) | 4.35 | – |
| 4.6 | > 100 | 5.68 | – | CC(C)(C)NC(=O)C1c2c(O)cccc2C(=O)N1Cc1ccccc1-c1ccccc1 (racemic) | 4.55 | – |
| 4.3 | 88 | 5.35 | 4.51 | Cc1c(NS(C)(=O)=O)ccc2c1C(=O)N(Cc1ccccc1-c1ccccc1)C2C(=O)NC(C)(C)C (racemic) | < 4.48 | – |
| 3.7 | 73 | 5.92 | – | CC(CN1C(=O)c2ccccc2C1C(=O)NCC(F)F)c1ccc(Cl)cc1 (racemic) | – | – |
| – | – | 5.77 | – | CC(C)(C)NC(=O)C1c2ccccc2C(=O)N1Cc1ccc(F)cc1-c1ccccc1 (single isomer, unassigned) | < 4.49 | CLH [7]: 62 µL/min/mg |
| – | – | 5.89 | 5.96 | Cc1c(O)ccc2c1C(=O)N(Cc1ccccc1-c1ccccc1)C2C(=O)NC(C)(C)C (single isomer, unassigned) | < 4.49 | CLH [7]: 20 µL/min/mg |
| 5.2 | 58 | 6.10 | – | CC(C)(C)NC(=O)C1c2ccccc2C(=O)N1Cc1ccc(F)cc1-c1ccccc1 (single isomer, unassigned; enantiomer 1) | < 4.48 | Activity [4]: 0.054 µM |
| 5.3 | 49 | 5.70 | – | CC(C)(C)NC(=O)C1c2ccccc2C(=O)N1Cc1cc(F)ccc1-c1ccc(F)cc1 (single isomer, unassigned; enantiomer 1) | < 4.48 | Activity [4]: 0.055 µM |
| 4.2 | 14 | 6.15 | – | CC(C)(CN1C(=O)c2ccccc2C1C(=O)NCCCF)c1ccc(Cl)cc1 (single isomer, unassigned; enantiomer 1) | < 4.48 | Activity [4]: 0.4 µM; clearance [8]: 18 mL/min/kg; bioavailability [9]: 41%; pIC50 [10]: < 4.30; solubility [11]: 83 µM (≈ 33.4 µg/mL); clearance [12]: 4.7 mL/min/kg; bioavailability [13]: 58% |
| – | – | – | – | CC(C)(C)NC(=O)C1c2ccccc2C(=O)N1Cc1ccccc1-c1ccccc1 (single isomer, unassigned; enantiomer 1) | < 4.48 | – |
| 5.2 | 102 | 5.85 | – | CC(C)(C)NC(=O)C1c2ccccc2C(=O)N1Cc1cc(F)ccc1-c1ccccc1 (single isomer, unassigned; enantiomer 1) | < 4.48 | Activity [4]: 0.079 µM |
| – | – | 6.05 | – | CC(C)(C)NC(=O)C1c2ccccc2C(=O)N1Cc1cc(F)ccc1-c1ccc(F)cc1 (single isomer, unassigned; enantiomer 2) | < 4.48 | Activity [4]: 0.28 µM; CLH [7]: 41 µL/min/mg |
| – | – | 6.00 | – | CC(C)(CN1C(=O)c2ccccc2C1C(=O)NCCCF)c1ccc(Cl)cc1 (single isomer, unassigned; enantiomer 2) | – | CLH [7]: 19 µL/min/mg |
| – | – | 5.47 | 4.77 | Cc1c(O)ccc2c1C(=O)N(Cc1ccccc1-c1ccccc1)C2C(=O)NC(C)(C)C (single isomer, unassigned; enantiomer 2) | 4.59 | CLH [7]: 24 µL/min/mg |
| – | – | 5.96 | – | CC(C)(C)NC(=O)C1c2ccccc2C(=O)N1Cc1ccccc1-c1ccc(F)c(F)c1 (single isomer, unassigned; enantiomer 2) | < 4.51 | CLH [7]: 103 µL/min/mg |
| – | – | – | – | CC(C)(C)NC(=O)C1c2ccccc2C(=O)N1Cc1ccccc1-c1ccccc1 (single isomer, unassigned; enantiomer 2) | < 4.48 | – |
| – | – | 5.80 | – | CC(C)(C)NC(=O)C1c2ccccc2C(=O)N1Cc1cc(F)ccc1-c1ccccc1 (single isomer, unassigned; enantiomer 2) | < 4.48 | CLH [7]: 96 µL/min/mg |
| 4.2 | 99 | 6.40 | – | CCCNC(=O)C1c2ccccc2C(=O)N1CC(C)c1ccc(Cl)cc1 (single isomer, unassigned; isomer 1) | – | solubility [14]: 21 µM (≈ 7.79 µg/mL); Activity [4]: 0.5 µM; clearance [8]: 6 mL/min/kg; bioavailability [9]: 63%; pIC50 [10]: < 4.30; clearance [12]: 7.8 mL/min/kg; bioavailability [13]: 81% |
| – | – | 6.15 | – | CCCNC(=O)C1c2ccccc2C(=O)N1CC(C)c1ccc(Cl)cc1 (single isomer, unassigned; isomer 2) | – | logD [1]: 3.9; Activity [4]: 0.4 µM; CLH [7]: 183 µL/min/mg |
| 5 | – | 5.82 | – | CC(C)(C)NC(=O)C1c2ccccc2C(=O)N1Cc1ccccc1-c1ccc(F)c(F)c1 (stereo in doubt; 16E1) | < 4.48 | Activity [4]: 0.066 µM; CLH [7]: 38 µL/min/mg |
| – | – | 6.30 | – | CC(C)(CN1C(=O)c2ccccc2C1C(=O)NCCCF)c1ccc(Cl)cc1 (stereo in doubt; 23) | – | logD [1]: 4; Activity [4]: 1.3 µM; CLH [7]: < 12 µL/min/mg |
